From US20140315975A1, “APOPTOSIS-INDUCING AGENT” (NITTO DENKO CORPORATION, priority 2011, published 2014)

What was measured:
Format in all cases: cell-based
[1] = tested on: RAS/Raf/MAPK signal cascade; experiment: Western blot of protein involved in RAS/Raf/MAPK signal cascade; settings: M7609 cells
Procedure: A western blot analysis for the main protein involved in the RAS/Raf/MAPK signal cascade was carried out in the same way as for (3) above using cells harvested on the 2nd day after transfection with GST-π siRNA. As antibodies, in addition to anti-GST-π antibody, anti-p-Raf-1 (Ser338) antibody (MILLIPORE), anti-Raf-1 antibody (Santa Cruz), anti-p-MEK1/2 (Ser217/221) antibody (Cell Signaling), anti-MEK1/2 antibody (Cell Signaling), anti-p-ERK1/2 (Thr202/Tyr204) antibody (Cell Signaling), anti-ERK antibody (Cell Signaling), and anti-GAPDH antibody (Abcam) were used.

M7609 cells [2] = experiment: Autophagy induction by LC3 immunofluorescence staining; settings: 1 to 4 days after transfection (FIG. 10)
Procedure: Induction of autophagy by GST-π knockdown was analyzed by immunofluorescence staining with LC3, which is an autophagy-specific marker protein. GST-π knockdown cells obtained by the procedure of Example 1 (2) were plated on a cover slip placed in a 35 mm plastic tissue culture dish so as to give 1×10^5 cells/2 mL. After the medium was aspirated, 4% paraformaldehyde in PBS was added, and incubation was carried out at room temperature for 10 min., thus fixing the cells. Permeabilization of the cells was carried out using 0.5% Triton X-100 in PBS on ice for 5 min. After washing with cold PBS for 10 min., a reaction with anti-LC3B antibody (Invitrogen) diluted with 1% BSA containing PBS was carried out within a humidity chamber at 37° C. for 1 hour. A secondary antibody reaction was carried out using Alexa Fluor488-labeled rabbit antibody (Invitrogen) at 37° C. for 1 hour. Mounting on a slide glass was carried out using Prolong Gold antifade reagent with DAPI, and incubation was carried out at 4° C. for 16 hours. Washing after the antibody reaction was carried out three times using PBS at 37° C. for 5 min. Autophagy-positive cells at the time of examination with a fluorescence microscope were defined as cells having a spot-like LC3 signal present in the cytoplasm.

LC3 = experiment: Autophagy induction by LC3 western blotting; settings: M7609 cells, western blot with anti-LC3 antibody (FIG. 8)
Procedure: Induction of autophagy in GST-π knockdown cells was further analyzed by a western blot analysis of LC3. GST-π knockdown cells obtained by the procedure of Example 1 (2) were plated on a cover slip placed in a 35 mm plastic tissue culture dish so as to give 1×10^5 cells/2 mL. After incubating for a predetermined time, a cell extract was collected and subjected to a western blot analysis. A reaction with a transfer membrane was carried out at 4° C. for 16 hours using anti-LC3B antibody (SIGMA) as a primary antibody. Detection of LC3 molecules was carried out using a chemoluminescent reagent after a reaction with HRP-labeled secondary antibody. Whether or not autophagy was induced was evaluated by a shift of LC3 from type I (18 kDa) to type II (16 kDa).

M7609 cells [3] = experiment: Apoptosis induction by TUNEL staining
Procedure: A TUNEL method was carried out as follows using an In Situ Cell Death Detection Kit, POD (Roche). GST-π knockdown cells obtained by the procedure of Example 1 (2) were plated on a cover slip placed in a 35 mm plastic tissue culture dish so as to give 1×10^5 cells/2 mL. After the medium was aspirated, 4% paraformaldehyde in PBS was added, and incubation was carried out at room temperature for 60 min., thus fixing the cells. In order to carry out blocking of endogenous peroxidase, incubation was carried out with 3% H2O2 in methanol at room temperature for 10 min. Subsequently, permeabilization of cells was carried out by treating with 0.1% Triton X-100 in 0.1% sodium citrate on ice for 2 min. The TUNEL reaction was carried out in a humidity chamber at 37° C. for 60 min. Detection of TUNEL-positive cells was carried out by a coloration reaction using a DAB substrate after reacting a peroxidase labeled anti-fluorescein antibody at 37° C. for 30 min. Counter staining was carried out using hematoxylin, stained cells were examined under an optical microscope, and TUNEL-positive cells were evaluated as apoptotic cells. Washing between the operations was carried out by rinsing with PBS.

## GST-π siRNA: GST-π siRNA (SEQ ID No: 1: GGGAGGCAAGACCUUCAUUTT, siRNA ID#2385, Ambion) (chemistry not given here)
[1]; 2nd day after transfection (FIG. 2)
  expression level of Raf protein: decreases
[1]; 2nd day after transfection, compared with Scramble siRNA (FIG. 2)
  phosphorylation of proteins involved in the RAS/Raf/MAPK signal cascade: decreased
M7609 cells [2]
  proportion of autophagy-positive cells (spot-like LC3 signal per 500 cells): increased rapidly after treatment, peaked on 2nd day, and then decreased
LC3
  expression of type II LC3: markedly increased
M7609 cells [3]; 1 to 4 days after transfection (FIG. 10)
  proportion of apoptosis-positive cells (TUNEL-positive per 1000 cells): gradually but continuously increased up to 4th day
M7609 cells [3]; 3rd to 5th day after transfection, stained images (FIG. 9)
  TUNEL-positive cells (apoptosis): TUNEL-positive cells, that is, apoptosis, was observed
